Results reported in patent US7279477B2 (Chugai Seiyaku Kabushiki Kaisha, priority 2001, dated 2007).
Read-outs that look alike come from different tables or passages of the source.

Legend:
[1] = biological target: T1, malonyl-CoA decarboxylase prepared from rat heart (Rattus norvegicus, UniProt Q920F5); assay: In vitro MCD inhibitory assay (spectrophotometric, 96 well); assay type: biochemical
T1 construct: from tissue; host or cells: rat heart
T1 sequence (Q920F5 39-492): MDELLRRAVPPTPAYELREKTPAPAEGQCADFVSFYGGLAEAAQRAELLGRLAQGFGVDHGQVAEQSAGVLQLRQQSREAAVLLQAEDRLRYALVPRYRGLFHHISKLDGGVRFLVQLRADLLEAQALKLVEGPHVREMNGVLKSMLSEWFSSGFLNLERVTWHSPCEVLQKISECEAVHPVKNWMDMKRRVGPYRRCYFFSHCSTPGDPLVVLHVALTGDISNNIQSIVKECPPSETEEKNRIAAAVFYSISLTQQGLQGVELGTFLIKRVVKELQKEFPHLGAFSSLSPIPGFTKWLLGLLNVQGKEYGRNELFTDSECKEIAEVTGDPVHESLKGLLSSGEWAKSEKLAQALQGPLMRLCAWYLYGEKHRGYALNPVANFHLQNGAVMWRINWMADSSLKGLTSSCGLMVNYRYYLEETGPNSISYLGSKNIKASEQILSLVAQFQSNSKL
Protocol: The following reagents are added into a 96 well titer plate: Tris-HCl buffer, 20 μL, DTE, 10 μL; I-malate, 20 μL; NAD, 10 μL; NADH, 25 μL; water, 80 μL; malic dehydrogenase, 5 μL. The contents are mixed and incubated for 2 min followed by the addition of 5 μL of citrate synthase.

breast carcinoma cells = conditions: Pizer et al.; cited from earlier work
[2] = biological target: T2, carnitine palmitoyltransferase-I (CPT-I) muscle (M) isoform (Homo sapiens, UniProt Q92523); conditions: read-out: IC50 of malonyl-CoA inhibition of CPT-I; cited from earlier work
T2 sequence (Q92523 1-772): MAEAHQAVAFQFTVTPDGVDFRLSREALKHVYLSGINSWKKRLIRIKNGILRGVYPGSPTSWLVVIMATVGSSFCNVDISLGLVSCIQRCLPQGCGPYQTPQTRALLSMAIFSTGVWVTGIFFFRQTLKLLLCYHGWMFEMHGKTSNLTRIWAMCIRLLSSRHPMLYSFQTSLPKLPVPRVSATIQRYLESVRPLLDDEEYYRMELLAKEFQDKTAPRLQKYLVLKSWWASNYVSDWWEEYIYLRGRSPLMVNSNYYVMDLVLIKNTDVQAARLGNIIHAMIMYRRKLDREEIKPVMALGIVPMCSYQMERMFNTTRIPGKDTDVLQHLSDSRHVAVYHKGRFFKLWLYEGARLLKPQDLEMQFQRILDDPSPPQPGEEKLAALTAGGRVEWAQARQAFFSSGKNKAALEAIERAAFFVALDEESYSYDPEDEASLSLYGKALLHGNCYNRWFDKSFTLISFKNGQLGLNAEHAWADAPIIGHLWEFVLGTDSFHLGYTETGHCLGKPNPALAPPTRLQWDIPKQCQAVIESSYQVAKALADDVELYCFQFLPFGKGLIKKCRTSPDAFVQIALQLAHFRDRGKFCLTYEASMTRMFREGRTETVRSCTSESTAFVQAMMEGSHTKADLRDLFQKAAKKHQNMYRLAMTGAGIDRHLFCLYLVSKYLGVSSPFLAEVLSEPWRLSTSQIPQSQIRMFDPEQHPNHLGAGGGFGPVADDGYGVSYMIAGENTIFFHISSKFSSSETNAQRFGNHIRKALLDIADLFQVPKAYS

[3] = MCD from rat heart, concentration causing 50% inhibition of MCD activity, read-out: IC50 of the MCD inhibitors

IC50 [1, 3]	Compound	other results
127 nM	CCCC(O)(CCC)c1ccc(C(O)(C(F)(F)F)C(F)(F)F)cc1 [Example 15]	–
147 nM	CCCCN(C(=S)N(CC)CC)c1ccc(C(O)(C(F)(F)F)C(F)(F)F)cc1 [Example 5-108]	–
164 nM	CCCCN(C(=N)N(CC)CC)c1ccc(C(O)(C(F)(F)F)C(F)(F)F)cc1.Cl [Example 4, butyl {4-[2,2,2-trifluoro-1-hydroxy-1-(trifluoromethyl)ethyl]phenyl}amino)(diethylamino)methaniminium chloride]	–
354 nM	CCCCNC(=O)c1c(-c2ccccc2)nc(-c2ccc(C(O)(C(F)(F)F)C(F)(F)F)cc2)n1CCC [Example 22, N-butyl-4-phenyl-1-propyl-2-{4-[2,2,2-trifluoro-1-hydroxy-1-(trifluoromethyl)ethyl]phenyl}-1H-imidazole-5-carboxamide]	–
44 nM	CCCCNC(=O)c1c(-c2ccccc2)nc(-c2ccc(C(O)(C(F)(F)F)C(F)(F)F)cc2)n1C(C)C [Example 23-11]	–
515 nM	CC(C)(C)OC(=O)CCNC(=O)C1CC(c2ccc(C(O)(C(F)(F)F)C(F)(F)F)cc2)=NO1 (stereo not drawn) [Example 12, 1,1-dimethylethyl N-[(3-{4-[2,2,2-trifluoro-1-hydroxy-1-(trifluoromethyl)ethyl]phenyl}-4,5-dihydroisoxazol-5-yl)carbonyl]-beta-alaninate]	–

More lines, now with the values behind:

Compound	IC50 [1, 3]	other results
CCOP(=O)(OCC)N(CC)c1ccc(C(O)(C(F)(F)F)C(F)(F)F)cc1 [Example 28, diethyl ethyl{4-[2,2,2-trifluoro-1-hydroxyl-1-(trifluoromethyl)ethyl]phenyl}amidophosphate]	–	IC50 [1]: 90 nM
OC(c1ccc(N(Cc2ccc(C(F)(F)F)cc2)C(=S)N2CCOCC2)cc1)(C(F)(F)F)C(F)(F)F [Example 1, morpholine-4-carbothioic acid [4-(2,2,2-trifluoro-1-hydroxy-1-trifluoromethyl-ethyl)-phenyl]-(4-trifluoromethyl-benzyl)-amide]	123 nM	–
CCCCN(C(=N)N(CC)CC)c1ccc(C(O)(C(F)(F)F)C(F)(F)F)cc1.Cl [Example 4]	–	melting point: 217.1 to 219.2 °C (dec.)
CCCCCCCCCCCCCCOc1ccc(C(=O)O)o1 [TOFA, 5-(tetradecyloxy)-2-furoic acid]	–	malonyl-CoA level (breast carcinoma cells): 60 % of the control
N#CCCCCN(C(=S)N1CCOCC1)c1ccc(C(O)(C(F)(F)F)C(F)(F)F)cc1 [Example 2, N-(4-cyanobutyl)-N-{4-[2,2,2-trifluoro-1-hydroxy-1-(trifluoromethyl)ethyl]phenyl}morpholine-4-carbothioamide]	42 nM	–
CC(C)(COP(=O)(O)OP(=O)(O)OC[C@H]1O[C@@H](n2cnc3c(N)ncnc32)[C@H](O)[C@@H]1OP(=O)(O)O)[C@@H](O)C(=O)NCCC(=O)NCCSC(=O)CC(=O)O [Malonyl-CoA]	–	IC50 [2]: 30 nM
COC(=O)CCCCN(C(=S)N1CCOCC1)c1ccc(C(O)(C(F)(F)F)C(F)(F)F)cc1 [Example 5-48]	45 nM	–
